Patent publication US6617335B1, “Preparation and drug composition of bis-benzyl-isoquinoline class alkaloids” (Kanghong USA, Inc., priority 2002, dated 2003)
One block for each molecule: values may come before it.

Experiments:
[1] = system: P388/adr; experiment: In vivo study of inhibition of MDR activity, nude mice xenografted with P388/adr
Procedure: Method: Using defined characteristics of […] P388/adr cell line in a nude mice model to determine the inhibition of MDR activity. Quantitative subcutaneous injection of P388 cell into the armpit of nude mice was followed for a certain period of time. […] The formulations and a cepharanthine control were administered by intraperitoneal injection for 2 to 4 times a day, and the animals consecutively observed for 10 days. Life span and survival rates were calculated.

[2] = system: P388/adr cell line; experiment: Isotopic determination of vincristine concentration in the P388/adr cell line; type: cell-based; conditions: P388/adr MDR cells; for inhibition of MDR activity / intracellular isotope marker concentration compared with verapamil: three levels; for intracellular vinca alkaloid concentration, combined therapy vs other known MDR inhibitors (tetrandrine, fangchinoline, cepharanthine): low, middle and high dosages
Procedure: Method: By using an isotope marker, differences were observed between intracellular vincristine concentrations during combined therapy and single therapy. […] The dosages were arranged in low, middle and high groups in parallel studies, results were calculated in dpm of vincristine concentration in the cell.

[3] = in vivo
Procedure: Method: LDs50 values for the compounds of formula (I) were calculated according to the method of Gaddum and Gu Han Yi.

[4] = system: Salmonella typhimurium TA97, TA98, TA100 and TA102; experiment: Mutagenicity test (Ames method); conditions: plate method, dosages 100, 20, 4, 0.8, 0.16
Procedure: Determinations were carried out the using Salmonella typhimurium […] mutants types TA97, TA98, TA100 and TA102 to detect the mutagenicity of said compound. Mutagenicity was determined according to the method of Ames. (Ames, B., et al. (1973). An improved bacterial test system for the detection and classification of mutagens and carcinogens. Proc. Natl. Acad. Sci. USA 70: 782-786). In the plate method with dosages of 100, 20, 4, 0.8, and 0.16, compared with the blank control, (self made compound S9), counting the number of reversed mutative colony changed, to decide the mutagenicity of the test compound.

[5] = system: P388/adr; experiment: In vitro reversal of multi drug resistance to vinblastine in P388/adr cells; type: cell-based; conditions: vinblastine against multi drug resistance cell line P388/adr
Procedure: The IC50 value was in the range of 2-3 μg/mL, the reversal index against P388 was around 20, and most of the compounds completely reversed multi drug resistance of vinblastine-treated tumor cells.

- melting point: 175 to 176 °C
Molecule: CCCOc1c(OC)cc2c3c1Oc1cc4c(cc1OC)CCN(C)[C@H]4Cc1ccc(cc1)Oc1cc(ccc1OC)C[C@@H]3N(C)CC2

Molecule: COc1ccc2cc1Oc1ccc(cc1)C[C@H]1c3cc(c(OC)cc3CCN1C)Oc1c(OC)c(OC)c(Br)c3c1[C@H](C2)N(C)CC3 [Example 8, 5-bromo-tetrandrine]
- inhibition of MDR activity of vinblastine against P388/adr compared with cepharanthine (VIII) [1]: significantly stronger
- increase of survival rates by the combined therapy ([1]; combined therapy with vinca alkaloid vs monotherapy, intraperitoneal, observed 10 days): 37.7%
- inhibition of MDR activity / intracellular isotope marker concentration compared with verapamil [2]: corresponding to verapamil
- inhibition of MDR activity / intracellular isotope marker concentration compared with verapamil ([2]; listed as Example No. 8): comparable to the available agent verapamil
- intracellular vinca alkaloid concentration, combined therapy vs monotherapy ([2]; isotope marker): significantly higher
- intracellular vinca alkaloid concentration, combined therapy vs other known MDR inhibitors (tetrandrine, fangchinoline, cepharanthine) ([2]; isotope marker): significantly higher
- intracellular vinca alkaloid concentration, combined therapy vs other known MDR inhibitors (tetrandrine, fangchinoline, cepharanthine) ([2]; isotope marker, listed as Example No. 8): higher
- LD50 at 1 month ([3]; in vivo, route not stated at this place, read-out: acute toxicity LD50): > 125 mg/kg
- LDs50, intraperitoneal administration ([3]; intraperitoneal): > 368 mg/kg bodyweight
- LDs50, intravenous administration ([3]; intravenous): > 125 mg/kg bodyweight
- mutagenicity (Ames) [4]: void of mutagenicity

- melting point: 184 to 185 °C
Molecule: COc1cc(Br)c2cc1Oc1ccc(cc1)C[C@H]1c3cc(c(OC)cc3CCN1C)Oc1c(OC)c(OC)c(Br)c3c1[C@H](C2)N(C)CC3 [Example 9, 5,14-dibromo-tetrandrine]

- IC50 value [5]: 11.7 µg/mL
Molecule: cepharanthine
